Measurements: ChEMBL document CHEMBL3868582, “Discovery, pharmacology, and clinical profile of omadacycline, a novel aminomethylcycline antibiotic” (Bioorg Med Chem, 2016)

Assays:
[1] = Volume of distribution in human at 100 mg, iv or 300 mg, po; format: ADME, organism-based; conditions: in vivo
[2] = Oral bioavailability in human 300 mg; format: ADME, organism-based; conditions: in vivo
[3] = AUC(0 to 24 hrs) in human at 300 mg, po; format: ADME; parameters: time < 24 hr, dose 300 mg, route oral; conditions: in vivo
[4] = AUC(0 to 24 hrs) in human at 100 mg, iv; format: ADME; parameters: dose 100 mg, time < 24 hr, route intravenous; conditions: in vivo
[5] = Protein binding in human plasma at 0.1 to 10 ug/ml; format: ADME, cell-free; conditions: read-out: PPB (converted)
[6] = Systemic clearance in human at 100 mg, iv or 300 mg, po; format: ADME, organism-based; conditions: in vivo
[7] = Cmax in human at 300 mg, po; format: ADME; parameters: dose 300 mg, route oral; conditions: in vivo
[8] = Terminal half life in human at 100 mg, iv or 300 mg, po; conditions: in vivo
[9] = Cmax in human at 100 mg, iv administered as infusion; format: ADME, organism-based; parameters: dose 100 mg, route intravenous; conditions: in vivo
[10] = Fraction absorbed in human urine at 36.6 uCi, po administered as single dose; format: ADME, organism-based; conditions: in vivo
[11] = Drug excretion in human feces at 36.6 uCi, po administered as single dose; format: ADME, organism-based; conditions: in vivo
OATP1B1 = OATP1B1 (Homo sapiens, UniProt Q9Y6L6); test: Inhibition of OATP1B1 (unknown origin) in HEK293 cells at 100 uM; format: cell-based; conditions: HEK293 cells expressing OATP1B1
OATP1B1, sequence (Q9Y6L6 whole entry): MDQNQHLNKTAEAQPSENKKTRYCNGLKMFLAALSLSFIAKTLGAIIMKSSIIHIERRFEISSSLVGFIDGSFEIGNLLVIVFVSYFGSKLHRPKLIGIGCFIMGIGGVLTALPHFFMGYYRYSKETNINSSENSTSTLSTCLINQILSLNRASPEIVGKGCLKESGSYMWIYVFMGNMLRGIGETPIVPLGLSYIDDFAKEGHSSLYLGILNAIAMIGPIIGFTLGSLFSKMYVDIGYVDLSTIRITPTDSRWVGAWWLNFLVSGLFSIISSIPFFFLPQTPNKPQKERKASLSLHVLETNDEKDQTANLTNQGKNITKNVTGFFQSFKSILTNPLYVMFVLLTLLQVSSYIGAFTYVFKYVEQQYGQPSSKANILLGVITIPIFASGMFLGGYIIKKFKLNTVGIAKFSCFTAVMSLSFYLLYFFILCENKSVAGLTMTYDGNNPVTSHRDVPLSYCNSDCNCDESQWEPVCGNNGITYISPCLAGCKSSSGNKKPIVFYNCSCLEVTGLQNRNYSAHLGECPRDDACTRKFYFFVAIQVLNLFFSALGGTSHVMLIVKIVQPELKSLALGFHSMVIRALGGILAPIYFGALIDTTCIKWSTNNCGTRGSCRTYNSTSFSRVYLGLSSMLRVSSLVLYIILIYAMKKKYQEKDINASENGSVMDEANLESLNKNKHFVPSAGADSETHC

OATP1B3 = OATP1B3 (Homo sapiens, UniProt Q9NPD5); test: Inhibition of OATP1B3 (unknown origin) in HEK293 cells at 100 uM; format: cell-based; conditions: HEK293 cells expressing OATP1B3
OATP1B3, sequence (Q9NPD5 whole entry): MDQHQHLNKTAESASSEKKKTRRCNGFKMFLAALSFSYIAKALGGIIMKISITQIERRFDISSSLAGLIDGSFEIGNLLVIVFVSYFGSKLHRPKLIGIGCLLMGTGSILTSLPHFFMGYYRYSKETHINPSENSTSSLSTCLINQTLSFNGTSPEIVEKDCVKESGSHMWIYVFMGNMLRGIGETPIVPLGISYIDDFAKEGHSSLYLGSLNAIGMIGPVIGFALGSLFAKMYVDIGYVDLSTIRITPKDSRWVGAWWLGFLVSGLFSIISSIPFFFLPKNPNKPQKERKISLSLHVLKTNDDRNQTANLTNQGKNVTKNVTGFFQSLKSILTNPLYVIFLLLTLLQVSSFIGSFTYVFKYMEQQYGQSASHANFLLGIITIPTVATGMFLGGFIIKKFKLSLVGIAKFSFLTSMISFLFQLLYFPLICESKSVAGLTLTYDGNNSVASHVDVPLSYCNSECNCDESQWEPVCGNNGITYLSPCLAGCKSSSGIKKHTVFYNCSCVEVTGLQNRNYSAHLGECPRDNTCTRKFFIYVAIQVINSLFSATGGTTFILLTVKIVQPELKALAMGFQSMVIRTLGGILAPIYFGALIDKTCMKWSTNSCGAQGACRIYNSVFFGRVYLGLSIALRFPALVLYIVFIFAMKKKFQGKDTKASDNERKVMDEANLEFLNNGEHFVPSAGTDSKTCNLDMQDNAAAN

OAT1 (SLC22A6) = OAT1 (SLC22A6) (Homo sapiens, UniProt Q4U2R8); test: Inhibition of human OAT1 expressed in HEK293 cells at 25 uM; format: cell-based
OAT1 (SLC22A6), sequence (Q4U2R8 whole entry): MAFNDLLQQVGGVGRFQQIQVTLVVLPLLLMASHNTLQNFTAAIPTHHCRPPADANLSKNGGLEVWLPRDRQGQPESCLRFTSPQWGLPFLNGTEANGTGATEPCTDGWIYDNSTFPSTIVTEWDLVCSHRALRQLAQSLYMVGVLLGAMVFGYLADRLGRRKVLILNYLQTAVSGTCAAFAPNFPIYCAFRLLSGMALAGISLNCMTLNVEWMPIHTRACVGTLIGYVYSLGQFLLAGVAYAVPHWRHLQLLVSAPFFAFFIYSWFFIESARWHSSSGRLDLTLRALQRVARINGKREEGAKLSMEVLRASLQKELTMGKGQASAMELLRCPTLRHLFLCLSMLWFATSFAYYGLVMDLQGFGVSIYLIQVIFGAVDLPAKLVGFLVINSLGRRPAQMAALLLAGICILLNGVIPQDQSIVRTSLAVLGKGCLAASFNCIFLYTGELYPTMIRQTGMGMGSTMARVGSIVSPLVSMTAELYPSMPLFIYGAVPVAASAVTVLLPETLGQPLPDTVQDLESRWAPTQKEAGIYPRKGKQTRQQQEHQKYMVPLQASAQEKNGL

[12] = Drug excretion in human urine at 36.6 uCi, po administered as single dose; format: ADME, organism-based; conditions: in vivo

Row | Compound | Vd [1] | bioavailability [2] | AUC(0-t) at 24 h [3] | AUC [4] | fraction unbound [5] | CL [6] | Cmax [7] | half-life [8] | Cmax [9] | Fabs [10] | Drug excretion [11] | inhibition at 100 µM (OATP1B1) | inhibition at 100 µM (OATP1B3) | inhibition at 25 µM (OAT1 (SLC22A6)) | Drug excretion [12]
1 | CN(C)c1cc(CNCC(C)(C)C)c(O)c2c1C[C@H]1C[C@H]3[C@H](N(C)C)C(O)=C(C(N)=O)C(=O)[C@@]3(O)C(O)=C1C2=O.Cl | 333 to 640 L | 34.5% | 5900 ng·h/mL | 8800 ng·h/mL | 0.79 | 17.1 L/h | 700 ng/mL | 17 h | 1800 ng/mL |  |  |  |  |  | 
2 | CN(C)c1cc([14CH2]NCC(C)(C)C)c(O)c2c1C[C@H]1C[C@H]3[C@H](N(C)C)C(O)=C(C(N)=O)C(=O)[C@@]3(O)C(O)=C1C2=O |  |  |  |  |  |  |  |  |  | 40% | 81.1 %ID | 10.1% | 10.1% | 32.1% | 14.4 %ID
